For 15 compounds, IC50 and inhibition results are on record in patent US11673889B2, “Substituted imidazo[4,5-c][1,8]naphthyridines as phosphodiesterase inhibitors” (Nanjing Zhengxiang Pharmaceuticals Co., Ltd., priority 2019, dated 2023).

pIC50: −log10 of the molar value. Where only a bound is given, the exact number is not on record here.

The target of test [1] is T1, human soluble ENPP1 (Homo sapiens, UniProt P22413).
T1 construct: 20 ng of human soluble ENPP1
T1 sequence (P22413 103-925 limits assumed): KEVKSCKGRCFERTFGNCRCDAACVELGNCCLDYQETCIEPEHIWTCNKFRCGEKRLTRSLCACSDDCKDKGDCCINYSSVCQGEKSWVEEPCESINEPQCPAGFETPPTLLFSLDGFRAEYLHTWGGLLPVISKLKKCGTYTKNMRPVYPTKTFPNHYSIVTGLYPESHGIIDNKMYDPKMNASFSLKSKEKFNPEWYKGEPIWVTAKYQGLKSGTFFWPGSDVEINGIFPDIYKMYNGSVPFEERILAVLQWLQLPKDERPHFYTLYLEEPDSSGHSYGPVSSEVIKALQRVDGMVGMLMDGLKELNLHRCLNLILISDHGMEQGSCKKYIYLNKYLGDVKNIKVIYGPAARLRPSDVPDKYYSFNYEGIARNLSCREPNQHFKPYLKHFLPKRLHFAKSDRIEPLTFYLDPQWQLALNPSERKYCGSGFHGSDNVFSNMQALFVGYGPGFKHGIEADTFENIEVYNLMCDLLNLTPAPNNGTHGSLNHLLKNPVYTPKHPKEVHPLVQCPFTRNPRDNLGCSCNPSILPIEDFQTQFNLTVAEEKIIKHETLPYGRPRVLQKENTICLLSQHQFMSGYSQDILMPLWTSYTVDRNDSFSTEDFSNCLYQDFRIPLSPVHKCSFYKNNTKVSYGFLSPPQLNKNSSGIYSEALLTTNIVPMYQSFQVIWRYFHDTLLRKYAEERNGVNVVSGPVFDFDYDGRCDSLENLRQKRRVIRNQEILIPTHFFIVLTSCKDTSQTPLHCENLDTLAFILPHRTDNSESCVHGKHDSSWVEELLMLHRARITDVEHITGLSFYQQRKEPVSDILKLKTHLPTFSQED
Put plainly: ENPP1 activity assay using p-Nitrophenyl-5′-AMP as a substrate. Type of test: biochemical. In short, it runs like this: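 Human soluble ENPP1 (35 ng) preincubated with inhibitor 30 min at RT, then p-nitrophenyl-5′-AMP added (3 mM solution, 2× final) and incubated 1 h at RT. p-Nitrophenolate release read at OD 405 nm; % inhibition vs no-inhibitor and blank controls, IC50 from four-parameter fit.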

In another test the target is T2, ENPP-1, MDA-MB-231 cells (Homo sapiens, UniProt P22413).
T2 sequence (P22413 1-925): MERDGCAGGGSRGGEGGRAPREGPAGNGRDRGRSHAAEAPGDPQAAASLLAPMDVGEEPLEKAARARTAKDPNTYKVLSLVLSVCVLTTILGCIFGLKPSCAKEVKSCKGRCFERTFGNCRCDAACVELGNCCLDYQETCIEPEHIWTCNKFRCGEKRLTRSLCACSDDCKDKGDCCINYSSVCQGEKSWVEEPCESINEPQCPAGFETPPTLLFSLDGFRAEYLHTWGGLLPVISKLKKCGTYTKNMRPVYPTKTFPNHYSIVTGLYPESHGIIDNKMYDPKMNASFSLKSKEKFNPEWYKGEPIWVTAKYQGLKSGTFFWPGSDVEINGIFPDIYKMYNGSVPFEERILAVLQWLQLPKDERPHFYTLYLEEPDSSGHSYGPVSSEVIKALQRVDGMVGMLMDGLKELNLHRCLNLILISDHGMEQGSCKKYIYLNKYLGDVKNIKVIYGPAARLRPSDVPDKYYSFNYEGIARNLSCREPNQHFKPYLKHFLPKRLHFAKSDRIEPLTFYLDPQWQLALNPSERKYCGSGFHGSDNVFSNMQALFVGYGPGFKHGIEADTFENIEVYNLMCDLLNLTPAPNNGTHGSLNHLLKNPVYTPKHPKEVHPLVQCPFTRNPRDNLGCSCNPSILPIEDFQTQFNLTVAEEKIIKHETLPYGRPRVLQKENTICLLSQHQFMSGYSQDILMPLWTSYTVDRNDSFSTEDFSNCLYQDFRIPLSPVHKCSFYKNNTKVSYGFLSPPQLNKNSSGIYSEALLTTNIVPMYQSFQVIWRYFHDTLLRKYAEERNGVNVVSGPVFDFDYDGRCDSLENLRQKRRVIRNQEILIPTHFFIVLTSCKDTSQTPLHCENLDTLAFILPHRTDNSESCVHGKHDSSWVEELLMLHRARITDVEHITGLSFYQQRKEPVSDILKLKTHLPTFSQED
Kind of test: cell-based. The conditions noted are these: for inhibition at 20 µM: MDA-MB-231, read-out: % Inhibition (at 20 μM).

The target in test [2] is T1, human soluble ENPP1. Kind of test: ENPP1 activity assay using p-Nitrophenyl-5′-TMP as a substrate. Type of test: biochemical. In short, it runs like this:
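Human soluble ENPP1 (20 ng) was preincubated with inhibitor for 30 min at room temperature. TMP-pNP was then added as a 2 mM […] solution and incubated 1 h at RT, with p-nitrophenol formation read by OD. IC50 came from four-parameter fits of % inhibition relative to no-inhibitor and blank controls.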

Where [3] appears, read: substrate TMP-pNP, 20 ng human soluble ENPP1, Tris buffer pH 9.5, read-out: TMP-pNP (IC50).

The pIC50 is the negative decadic logarithm of the IC50, by convention in mol/L. The term inhibition denotes the share of the control response that was lost under treatment. For the compound `COc1ccc2c(ncc3[nH]c(=O)n(Cc4ccc(S(N)(=O)=O)cn4)c32)n1` [Compound 99, 6-((7-methoxy-2-oxo-2,3-dihydro-1H-imidazo[4,5-c][1,8]naphthyridin-1-yl)methyl)pyridine-3-sulfonamide], the pIC50 at human soluble ENPP1 [1] was 9.10; on ENPP-1, MDA-MB-231 cells it was 6.22; on human soluble ENPP1 [2] it was 9.57. Moreover, the inhibition at 20 µM at ENPP-1, MDA-MB-231 cells was found to be 77%.
The corresponding values for `COc1ccc2c(ncc3[nH]c(=O)n([C@H](C)c4ccc(S(N)(=O)=O)cc4)c32)n1` [Compound 101, (R)-4-(1-(7-methoxy-2-oxo-2,3-dihydro-1H-imidazo[4,5-c][1,8]naphthyridin-1-yl)ethyl)benzenesulfonamide] are 8.96, 5.62, 9.17 and 76%.
The corresponding values for `COc1ccc2c(ncc3[nH]c(=O)n(Cc4c(F)cc(S(=O)(=O)NC(C)=O)cc4F)c32)n1` [Compound 104, sodium acetyl((3,5-difluoro-4-((7-methoxy-2-oxo-2,3-dihydro-1H-imidazo[4,5-c][1,8]naphthyridin-1-yl)methyl)phenyl)sulfonyl)amide] are 7.96, 5.47, 8.05 and 72%.
Take `CCC(=O)NS(=O)(=O)c1cc(F)c(Cn2c(=O)[nH]c3cnc4nc(OC)ccc4c32)c(F)c1` [Compound 105, sodium ((3,5-difluoro-4-((7-methoxy-2-oxo-2,3-dihydro-1H-imidazo[4,5-c][1,8]naphthyridin-1-yl)methyl)phenyl)sulfonyl)(propionyl)amide]: the pIC50 at human soluble ENPP1 [1] is 7.72; against ENPP-1, MDA-MB-231 cells, below 5.17; at human soluble ENPP1 [2] (setting [3]), 7.68. For the same compound, the inhibition at 20 µM at ENPP-1, MDA-MB-231 cells came to 67%.
Regarding `COc1ccc2c(ncc3[nH]c(=O)n(Cc4c(F)cc(C(=O)O)cc4F)c32)n1` [Compound 108, 3,5-difluoro-4-((7-methoxy-2-oxo-2,3-dihydro-1H-imidazo[4,5-c][1,8]naphthyridin-1-yl)methyl)benzoic acid], the pIC50 is 7.18 at human soluble ENPP1 [1]; 5.24 at ENPP-1, MDA-MB-231 cells; 7.80 on human soluble ENPP1 [2]. Besides, the inhibition at 20 µM at ENPP-1, MDA-MB-231 cells is 64%.
As for `COc1ccc2c(ncc3[nH]c(=O)n(Cc4c(F)cc(C(=O)NO)cc4F)c32)n1` [Compound 110, 3,5-difluoro-N-hydroxy-4-((7-methoxy-2-oxo-2,3-dihydro-1H-imidazo[4,5-c][1,8]naphthyridin-1-yl)methyl)benzamide], the pIC50 against human soluble ENPP1 [1] is 8.59; on ENPP-1, MDA-MB-231 cells it was 6.82; on human soluble ENPP1 [2] (setting [3]), 9.22. Moreover, at ENPP-1, MDA-MB-231 cells, the inhibition at 20 µM came to 86%.
For the compound `COc1ccc2c(ncc3[nH]c(=O)n(Cc4c(F)cc(B(O)O)cc4F)c32)n1` [Compound 111, (3,5-difluoro-4-((7-methoxy-2-oxo-2,3-dihydro-1H-imidazo[4,5-c][1,8]naphthyridin-1-yl)methyl)phenyl)boronic acid], the pIC50 on human soluble ENPP1 [1] was 7.68; against ENPP-1, MDA-MB-231 cells it was 9.51; at human soluble ENPP1 [2] (setting [3]), 8.13. At ENPP-1, MDA-MB-231 cells, the inhibition at 20 µM was 80%.
The corresponding values for `COc1ccc2c(ncc3[nH]c(=O)n(Cc4c(F)cc(S(N)(=O)=O)c(F)c4F)c32)n1` [Compound 112, 2,3,5-trifluoro-4-((7-methoxy-2-oxo-2,3-dihydro-1H-imidazo[4,5-c][1,8]naphthyridin-1-yl)methyl)benzenesulfonamide] are 9.00, 7.15, 9.52 and 80%.
For `COc1ccc2c(n1)nc(C)c1[nH]c(=O)n(Cc3c(F)cc(S(N)(=O)=O)cc3F)c12` [Compound 113, 3,5-difluoro-4-((7-methoxy-4-methyl-2-oxo-2,3-dihydro-1H-imidazo[4,5-c][1,8]naphthyridin-1-yl)methyl)benzenesulfonamide], the pIC50 was 8.30 on human soluble ENPP1 [1]; 6.60 at ENPP-1, MDA-MB-231 cells; 8.96 on human soluble ENPP1 [2] (setting [3]). The inhibition at 20 µM at ENPP-1, MDA-MB-231 cells is 72%.
For `COc1ccc2c(ncc3c2n(Cc2c(F)cc(S(N)(=O)=O)cc2F)c(=O)n3CCO)n1` [Compound 115, 3,5-difluoro-4-((3-(2-hydroxyethyl)-7-methoxy-2-oxo-2,3-dihydro-1H-imidazo[4,5-c][1,8]naphthyridin-1-yl)methyl)benzenesulfonamide], in that order: 9.49, 7.25, 9.96 and 78%.
With `COc1ccc2c(ncc3cnn(Cc4ccc(S(N)(=O)=O)cc4)c32)n1` [Compound 116, 4-((7-methoxy-1H-pyrazolo[4,3-c][1,8]naphthyridin-1-yl)methyl)benzenesulfonamide], the pIC50 was 8.74 against human soluble ENPP1 [1]; 5.74 against ENPP-1, MDA-MB-231 cells; 9.42 against human soluble ENPP1 [2]. On ENPP-1, MDA-MB-231 cells, the inhibition at 20 µM turned out to be 68%.
The corresponding values for `COc1ccc2c(ncc3ccn(Cc4ccc(S(N)(=O)=O)cc4)c32)n1` [Compound 117, 4-((7-methoxy-1H-pyrrolo[3,2-c][1,8]naphthyridin-1-yl)methyl)benzenesulfonamide] are 7.47, 4.80, 8.09 and 16%.
As to `COc1ccc2c(c1)nnc1[nH]c(=O)n(Cc3ccc(S(N)(=O)=O)cc3F)c12` [Compound 123, 3-fluoro-4-((7-methoxy-2-oxo-2,3-dihydro-1H-imidazo[4,5-c]cinnolin-1-yl)methyl)benzenesulfonamide], the negative logarithm of the IC50 (pIC50) against human soluble ENPP1 [1] is 8.62; on ENPP-1, MDA-MB-231 cells it was 5.74; at human soluble ENPP1 [2] (setting [3]), 9.21. Further, at ENPP-1, MDA-MB-231 cells, the inhibition at 20 µM worked out at 66%.
As for `COc1ccc2c(ncc3[nH]c(=O)n(Cc4c(F)cc(P(=O)(O)O)cc4F)c32)n1` [Compound 124, (3,5-difluoro-4-((7-methoxy-2-oxo-2,3-dihydro-1H-imidazo[4,5-c][1,8]naphthyridin-1-yl)methyl)phenyl)phosphonic acid], the pIC50 against human soluble ENPP1 [1] is 7.25; against ENPP-1, MDA-MB-231 cells, 8.02; against human soluble ENPP1 [2], 7.72. For the same compound, the inhibition at 20 µM on ENPP-1, MDA-MB-231 cells is 86%.
For `COc1ccc2c(ncc3nc(C)n(Cc4cc(F)c(P(=O)(O)O)cc4F)c32)n1` [Compound 125, (2,5-difluoro-4-((7-methoxy-2-methyl-1H-imidazo[4,5-c][1,8]naphthyridin-1-yl)methyl)phenyl)phosphonic acid], in that order: 7.68, 8.57, 8.14 and 82%.
